Laboratory results as given in US20160370380A1, “COMBINATORIAL ANTIBODY DIAGNOSTIC” (PharmaSeq, Inc., priority 2015, published 2016).

Experiments:
[1] = test system: anti-HA antibody; assay: anti-HA antibody binding assay on MTP-bound peptides (fluorescence, SAPE detection)
[2] = test system: anti-HA antibody; assay: HA competitive binding: free peptide in solution competes with […] on MTPs for the anti-HA antibody; conditions: for competitive activity against YPYDVPDYA peptide on MTPs for anti-HA antibody: free peptide with spacer GG in solution, FIG. 3

Row | Substance | assay signal (binding to anti-HA antibody) in screen of random 4-aa peptide library ([1]; 5,307 random 4-aa peptides on MTPs, 10 ug/mL biotinylated anti-HA monoclonal antibody, fluorescence at 532 nm) | competitive activity against YPYDVPDYA peptide on MTPs for anti-HA antibody [2] | recognition by / affinity to anti-HA antibody in HA peptide assay ([1]; […], QC control group vial #9, data not shown) | binding affinity to the anti-HA antibody (conclusion from competition and screen) ([2]; taken together from results of FIG. 3 and screen)
1 | HKRK | very low binding | no competitive activity | – | –
2 | YPYDVPDYA | – | reduced assay signal | specifically recognized by anti-HA antibody | –
3 | YHYY | – | competed well | – | high binding affinity
